{"source": "patent US12083097B2", "about": "“Dual TNFR1 antagonists and TNER2 agonists for use in renal diseases” (SERODUS AS, priority 2020, dated 2024)", "key": {"sTNFR1": {"tested_on": "sTNFR1", "assay": "Urine sTNFR1-to-creatinine in Px-UNx diabetic nephropathy rat model (ELISA)", "type": "in vivo", "conditions": "for urine sTNFR1 corrected for creatinine, pooled data from Table 2: Treated Px-UNx rats (n = 33), doses 1, 3, 10 mg/kg pooled", "method": "Three active doses of 1, 3 and 10 mg/kg of compound 1 were administered orally once daily to 90% pancreatectomized and uninephrectomized rats over 49 days. A control group received placebo, and another control group underwent surgery to mimic the 90% pancreatectomy (Px) and uninephrectomy (UNx) without affecting the function of the kidney or the pancreas (Sham model). The Sham group also received placebo. The conclusion from the rat study was that compound 1 reduced the level of sTNFR1 in the urine over the full treatment period (see FIG. 2). […] The daily doses in the rat model may be converted into equivalent doses in humans (Guidance for Industry: Estimating the Maximum Safe Starting Dose in Initial Clinical Trials for Therapeutics in Adult Healthy Volunteers, 2005). Thus, the 1 mg/kg daily dose corresponds to a human daily dose of 0.16 mg/kg or 11.2 mg for a 70-kg patient. Likewise, a 3 mg/kg daily dose corresponds to a human daily dose of 0.48 mg/kg or 33.6 mg for a 70-kg patient. Finally, a 10 mg/kg daily dose corresponds to a human daily dose of 1.6 mg/kg or 112.7 mg for a 70-kg patient.\n(§1) In the examples below, the sTNFR1 and sTNFR2 were measured using the commercial ELISA kits mouse/rat TNFRI/TNFRII Quantikine ELISA kits from R&D Systems according to the manufacturers protocol. However, for the purpose of measuring the sTNFR1 and sTNFR2 in humans for determining the relevant population groups according the present invention, the method described in Krolewski A. S. Diabetes Care 2015; 38:954-962 and Krolewski A. S. et al. Kidney Int. 2017 June; 91(6): 1300-1311 should be used.\n(§2) The pancreatectomy and uninephrectomy (see below) were conducted during a single surgical procedure (Secher T et al. Diabetes 2018 July; 67(Supplement 1)). Animals were operated in a randomized fashion during several consecutive surgical days. After an overnight full-fast with grids installed in the cages, the rats were pancreatectomized and uninephrectomized under isoflurane anesthesia. Pre-operative analgesia, antibiotics and fluid replacement were administered. Rats were not offered any food from one day before to one day after the surgery, From the second day after surgery they were fed ad libitum.\n(§3) In short, the 90% pancreatectomy is performed by removing the complete portion of the tail, body and a part of the pancreatic head by gentle abrasion with dental applicator. The major blood vessels to the stomach, spleen and gut are left intact so no other organs are compromised.\n(§4) Briefly, the right kidney is visited and the right ureter, kidney artery and kidney vein identified, and ligated with suture. Hereafter, the right kidney is removed.\n(§5) The sham operation is conducted to mimic the Px-UNx surgical procedure as best as possible. In brief, anesthesia and analgesia as well as opening and closuring the abdominal cavity are conducted as described above. After the abdominal cavity is opened, the pancreas and right kidney will be exposed, but left untouched and intact.\nRats were placed individually in metabolic cages for 16 h from the afternoon to the next morning. Randomized subsets of the study groups were placed in the cages over several days (as there were fewer cages than rats). Rats were supplied with chow and water ad libitum. Cage enrichment (igloo, plastic stick to sit on) was included if possible. Total urine volume was recorded, and urine stored at −80° C. Large amounts were aliquoted in several 0.5 ml Eppendorph tubes prior to freezing.\nUrine samples were stored at −80° C. until analysis. sTNFR1 in rat urine was measured using commercial ELISA kits (R&D Systems mouse/rat TNFRI/TNFRII Quantikine ELISA kits) according to the manufacturer's instructions. Urine creatinine was measured using the CREP2 kit (Roche Diagnostics, Germany) on the Cobas™ C-501 autoanalyzer as per the manufacturer's instructions. Urinary albumin was measured using the Bethyl Laboratories rat albumin ELISA as per the manufacturer's instructions. […]"}, "sTNFR2": {"tested_on": "sTNFR2", "assay": "Urine sTNFR2-to-creatinine in Px-UNx diabetic nephropathy rat model (ELISA)", "type": "in vivo", "conditions": "for urine concentration of sTNFR2 corrected for urine creatinine: Group 3, Px-UNx rats, 1 mg/kg", "method": "as §1, §2, §3, §4, §5\nRats were placed individually in metabolic cages for 16 h from the afternoon to the next morning. […] Total urine volume was recorded, and urine stored at −80° C. […]\nUrine samples were stored at −80° C. until analysis. sTNFR1 in rat urine was measured using commercial ELISA kits (R&D Systems mouse/rat TNFRI/TNFRII Quantikine ELISA kits) according to the manufacturer's instructions. Urine creatinine was measured using the CREP2 kit (Roche Diagnostics, Germany) on the Cobas™ C-501 autoanalyzer as per the manufacturer's instructions. Urinary albumin was measured using the Bethyl Laboratories rat albumin ELISA as per the manufacturer's instructions. The urinary albumin-to-creatinine ratio (UACR) was calculated. […]\nLikewise, the urine concentrations of sTNFR2 corrected for urine concentration of creatinine (pg/mg) were measured at baseline and after 4 and 7 weeks in group 3."}, "[1]": {"tested_on": "patients with diabetic nephropathy", "assay": "Clinical Phase 2a study, ACR in patients with diabetic nephropathy", "type": "in vivo, human", "conditions": "for Average baseline ACR / Average ACR (4 weeks): doses 0.3 and 0.625 mg/kg daily pooled", "method": "A clinical Phase 2a study with compound 1 was conducted in patients with diabetic nephropathy. The patients were divided into two different subgroups having either macroalbuminuria (ACR>300 mg/g) or microalbuminuria (ACR 30-300 mg/g), and each subgroup were treated with 0.3 mg of compound 1/kg daily or 0.625 mg of compound 1/kg daily for 4 weeks."}}, "note": "Entries after “also recorded” stand apart in the source; their conditions may differ.", "data": [{"molecule": "O=C(O)CC/C=C\\C[C@@H]1CO[C@H](c2ccccc2Cl)O[C@@H]1c1ccccc1O", "note": "[compound 1, (Z)-6-((2S,4S,5R)-2-(2-chlorophenyl)-4-(2-hydroxyphenyl)-1,3-dioxan-cis-5-yl) hex-4-enoic acid]", "values": [{"measurement": "urine concentration of sTNFR1 corrected for urine creatinine", "setting": "sTNFR1; Group 3, Px-UNx rats, 1 mg/kg orally once daily, 0 weeks (baseline)", "value": 243.38, "unit": "pg/mg"}, {"measurement": "urine concentration of sTNFR1 corrected for urine creatinine", "setting": "sTNFR1; Group 3, Px-UNx rats, 1 mg/kg orally once daily, 4 weeks", "value": 373.28, "unit": "pg/mg"}, {"measurement": "urine concentration of sTNFR1 corrected for urine creatinine", "setting": "sTNFR1; Group 3, Px-UNx rats, 1 mg/kg orally once daily, 7 weeks", "value": 345.46, "unit": "pg/mg"}, {"measurement": "urine concentration of sTNFR1 corrected for urine creatinine", "setting": "sTNFR1; Group 4, Px-UNx rats, 3 mg/kg orally once daily, 0 weeks (baseline)", "value": 236.29, "unit": "pg/mg"}, {"measurement": "urine concentration of sTNFR1 corrected for urine creatinine", "setting": "sTNFR1; Group 4, Px-UNx rats, 3 mg/kg orally once daily, 4 weeks", "value": 313.80, "unit": "pg/mg"}, {"measurement": "urine concentration of sTNFR1 corrected for urine creatinine", "setting": "sTNFR1; Group 4, Px-UNx rats, 3 mg/kg orally once daily, 7 weeks", "value": 369.65, "unit": "pg/mg"}, {"measurement": "urine concentration of sTNFR1 corrected for urine creatinine", "setting": "sTNFR1; Group 5, Px-UNx rats, 10 mg/kg orally once daily, 0 weeks (baseline)", "value": 220.27, "unit": "pg/mg"}, {"measurement": "urine concentration of sTNFR1 corrected for urine creatinine", "setting": "sTNFR1; Group 5, Px-UNx rats, 10 mg/kg orally once daily, 4 weeks", "value": 348.50, "unit": "pg/mg"}, {"measurement": "urine concentration of sTNFR1 corrected for urine creatinine", "setting": "sTNFR1; Group 5, Px-UNx rats, 10 mg/kg orally once daily, 7 weeks", "value": 375.03, "unit": "pg/mg"}, {"measurement": "corrected urine sTNFR1 level versus placebo group", "setting": "sTNFR1; Px-UNx rats, 1, 3, 10 mg/kg, 4 and 7 weeks, compared with Px-UNx placebo", "value": "capable of decreasing the level of sTNFR1; also recorded: consistently below the values for the placebo group"}, {"measurement": "difference in sTNFR1 effect between dosage levels", "setting": "sTNFR1; Px-UNx rats, 1, 3 or 10 mg/kg", "value": "no statistically significant difference between dosage levels"}, {"measurement": "change in urine sTNFR1 from baseline versus placebo (FIG. 2)", "setting": "sTNFR1; Px-UNx rats, pooled doses, 7-week period", "value": "significantly less than for the placebo control group"}, {"measurement": "urine sTNFR1 corrected for creatinine, pooled data from Table 2", "setting": "sTNFR1; 0 weeks (baseline)", "value": 233.3, "unit": "pg/mg"}, {"measurement": "urine sTNFR1 corrected for creatinine, pooled data from Table 2", "setting": "sTNFR1; 4 weeks", "value": 345.2, "unit": "pg/mg"}, {"measurement": "urine sTNFR1 corrected for creatinine, pooled data from Table 2", "setting": "sTNFR1; 7 weeks", "value": 363.4, "unit": "pg/mg"}, {"measurement": "urine concentration of sTNFR2 corrected for urine creatinine", "setting": "sTNFR2; 0 weeks (baseline)", "value": 4561, "unit": "pg/mg"}, {"measurement": "urine concentration of sTNFR2 corrected for urine creatinine", "setting": "sTNFR2; 4 weeks", "value": 3302, "unit": "pg/mg"}, {"measurement": "urine concentration of sTNFR2 corrected for urine creatinine", "setting": "sTNFR2; 7 weeks", "value": 3264, "unit": "pg/mg"}, {"measurement": "change in urine TNFR2-to-creatinine from baseline versus placebo (FIG. 3)", "setting": "sTNFR2; Px-UNx rats, 3 mg/kg, p.o., 4 and 7 weeks", "value": "decreasing levels of TNFR2 but much less compared to the placebo control group"}, {"measurement": "difference in ACR effect between the two doses", "setting": "[1]; 0.3 vs 0.625 mg/kg daily, each subgroup, 4 weeks", "value": "No statistic significant difference between the two doses"}, {"measurement": "ACR reduction in macroalbuminuria versus microalbuminuria sub-group", "setting": "[1]; 4 weeks, doses pooled", "value": "statistic significant higher reduction in ACR"}, {"measurement": "Average baseline ACR", "setting": "[1]; Macroalbuminuria (ACR>300 mg/g) patients, n = 11, baseline", "value": 691, "unit": "mg/g"}, {"measurement": "ACR reduction (%)", "setting": "[1]; Macroalbuminuria patients, n = 11, 4 weeks vs baseline, doses pooled", "value": 26.2, "unit": "%"}, {"measurement": "Average ACR (4 weeks)", "setting": "[1]; Macroalbuminuria patients, n = 11, after 4 weeks", "value": 510, "unit": "mg/g"}, {"measurement": "Average baseline ACR", "setting": "[1]; Microalbuminuria (ACR 30-300 mg/g) patients, n = 38, baseline", "value": 91.8, "unit": "mg/g"}, {"measurement": "ACR reduction (%)", "setting": "[1]; Microalbuminuria patients, n = 38, 4 weeks vs baseline, doses pooled", "value": 20.9, "unit": "%"}, {"measurement": "Average ACR (4 weeks)", "setting": "[1]; Microalbuminuria patients, n = 38, after 4 weeks", "value": 72.6, "unit": "mg/g"}, {"measurement": "reduction in ACR from baseline", "setting": "[1]; both subgroups (micro- and macroalbuminuria), 4 weeks", "value": "statistically significant reduction in ACR"}]}]}
